We go through one compound from patent US20250082665A1, “EYE DROP FORMULATIONS IN THE FORM OF AN AQUEOUS SOLUTION COMPRISING 8-OXO-2'-DEOXYGUANOSINE OR A PHARMACEUTICALLY ACCEPTABLE SALT THEREOF” (RUDACURE CORPORATION, priority 2023, published 2025).

The solubility is how much of the substance goes into solution per volume. Higher therefore signals much dissolved substance.

Data set [1] can be described thus: water solubility / solubilization of the compound of Formula 1. It counts as physicochemical.
Another data set deals with corneal injuries. To be noted: cited from earlier work.

On to `Nc1nc2c(nc(O)n2[C@H]2C[C@H](O)[C@@H](CO)O2)c(=O)[nH]1` [compound of Formula 1, 8-oxo-2′-deoxyguanosine], for which the “behaviour of aqueous solution obtained by heating when stored at room temperature” value in data set [1] (solubilized by heating, stored at room temperature) was “precipitates”. Further, in data set [1] (water, room temperature (about 25° C.)), the solubility came to 1910 µg/mL. Further, in the data set with corneal injuries, the corneal epithelial restoration entry is reported as “rapid corneal epithelial restoration”.
